According to ChEMBL document CHEMBL1201862, “PubChem BioAssay data set” (2004):
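These data come from cells grown in 96-well plates and exposed to compound for 48 hours at five concentrations. GI50 is the concentration that inhibits growth by half.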 Activity calls are given as the source filed them. No stated cut-off is given here; in the data, active = GI50 up to about 1.1 µM and inactive = higher.

Columns and labels:
Test in all cases: inhibition of tumour cell growth, NCI panel, 48 h
A549 = test system: A549
COLO 205 = test system: COLO 205
DU-145 = test system: DU-145
EKVX = test system: EKVX
HCT-15 = test system: HCT-15
HOP-62 = test system: HOP-62
Hs-578T = test system: Hs-578T
IGROV-1 = test system: IGROV-1
LOX IMVI = test system: LOX IMVI
MCF7 = test system: MCF7
NCI-H226 = test system: NCI-H226
NCI-H460 = test system: NCI-H460
NCI/ADR-RES = test system: NCI/ADR-RES
OVCAR-4 = test system: OVCAR-4
OVCAR-5 = test system: OVCAR-5
OVCAR-8 = test system: OVCAR-8
SF-268 = test system: SF-268
SN12C = test system: SN12C
UO-31 = test system: UO-31
U-251 = test system: U-251

| SMILES | GI50 (A549) | GI50 (COLO 205) | GI50 (DU-145) | GI50 (EKVX) | GI50 (HCT-15) | GI50 (HOP-62) | GI50 (Hs-578T) | GI50 (IGROV-1) | GI50 (LOX IMVI) | GI50 (MCF7) | GI50 (NCI-H226) | GI50 (NCI-H460) | GI50 (NCI/ADR-RES) | GI50 (OVCAR-4) | GI50 (OVCAR-5) | GI50 (OVCAR-8) | GI50 (SF-268) | GI50 (SN12C) | GI50 (UO-31) | GI50 (U-251) |
| --- | --- | --- | --- | --- | --- | --- | --- | --- | --- | --- | --- | --- | --- | --- | --- | --- | --- | --- | --- | --- |
| CC1C[C@]2(C)C(=O)N(c3ccccc3)C(=N)[C@@H]2N(C)c2ccccc21 (stereo not given in full) | > 100 µM (inactive) | > 100 µM (inactive) | > 100 µM (inactive) | > 100 µM (inactive) | > 100 µM | > 100 µM (inactive) | > 100 µM (inactive) | > 100 µM (inactive) | > 100 µM (inactive) | > 100 µM (inactive) | > 100 µM (inactive) | > 100 µM (inactive) | > 100 µM (inactive) | > 100 µM (inactive) | > 100 µM (inactive) | > 100 µM (inactive) | > 100 µM (inactive) | 10.8 µM (inactive) | > 100 µM (inactive) | – |
| C[C@]12CC/C(=N\O)C=C1CC[C@@H]1[C@@H]2CC[C@]2(C)C(=N/O)/C(=C/c3cccnc3)C[C@@H]12 | 13.1 µM (inactive) | 17.2 µM (inactive) | 21.8 µM (inactive) | 18.4 µM (inactive) | 5.9 µM | 18.7 µM (inactive) | 3.63 µM (inactive) | 30.4 µM (inactive) | 4.76 µM (inactive) | 6.97 µM (inactive) | 3.63 µM (inactive) | 3.46 µM (inactive) | 14.3 µM (inactive) | 18.1 µM (inactive) | 24.2 µM (inactive) | 15.4 µM (inactive) | – | 12.2 µM (inactive) | 4.9 µM (inactive) | 22.6 µM (inactive) |
| CCOC(=O)C1(C/C=C/CBr)CCc2ccccc2C1=O (stereo not given) | 14 µM (inactive) | 17.2 µM (inactive) | 14 µM (inactive) | 27.5 µM (inactive) | 19.7 µM | 16.2 µM (inactive) | 30.8 µM (inactive) | 11.1 µM (inactive) | 6.37 µM (inactive) | 7.89 µM (inactive) | 6.95 µM (inactive) | – | 22 µM (inactive) | 13.6 µM (inactive) | 29 µM (inactive) | 15.7 µM (inactive) | 18.5 µM (inactive) | 15.1 µM (inactive) | 14.3 µM (inactive) | 14.1 µM (inactive) |
| CCOC(=O)/C(=C\NC(C)(C)C)c1nc2ccccc2o1 | 42.4 µM (inactive) | 21.3 µM (inactive) | 43.4 µM (inactive) | > 100 µM (inactive) | 36.6 µM | > 100 µM (inactive) | 28.3 µM (inactive) | 51.9 µM (inactive) | 27.4 µM (inactive) | 29.3 µM (inactive) | 20.9 µM (inactive) | 25.7 µM (inactive) | 35.6 µM (inactive) | 31.4 µM (inactive) | 60 µM (inactive) | 39 µM (inactive) | 37.8 µM (inactive) | 50.1 µM (inactive) | 0.124 µM (active) | – |
| CN1C(=O)C23CCCCC2CC1(c1ccccc1)S3 (stereo not given) | 64.7 µM (inactive) | 71.9 µM (inactive) | > 100 µM (inactive) | > 100 µM (inactive) | 80 µM | > 100 µM (inactive) | 99.1 µM (inactive) | > 100 µM (inactive) | 79.8 µM (inactive) | 78.2 µM (inactive) | > 100 µM (inactive) | – | 38.5 µM (inactive) | 34.2 µM (inactive) | > 100 µM (inactive) | > 100 µM (inactive) | > 100 µM (inactive) | 94.4 µM (inactive) | 63 µM (inactive) | 77.4 µM (inactive) |
| CSc1ncnc2c1ncn2CCC#N | > 100 µM (inactive) | > 100 µM (inactive) | > 100 µM (inactive) | > 100 µM (inactive) | – | > 100 µM (inactive) | > 100 µM (inactive) | > 100 µM (inactive) | > 100 µM (inactive) | > 100 µM (inactive) | > 100 µM (inactive) | > 100 µM (inactive) | > 100 µM (inactive) | > 100 µM (inactive) | > 100 µM (inactive) | > 100 µM (inactive) | > 100 µM (inactive) | > 100 µM (inactive) | > 100 µM (inactive) | – |
| O=C1CCCC[C@H]1C(O)CC1CC(=O)N(c2ccccc2)C(=O)C1 (stereo not given in full) | > 100 µM (inactive) | – | > 100 µM (inactive) | – | > 100 µM | > 100 µM (inactive) | > 100 µM (inactive) | > 100 µM (inactive) | > 100 µM (inactive) | > 100 µM (inactive) | > 100 µM (inactive) | > 100 µM (inactive) | > 100 µM (inactive) | > 100 µM (inactive) | > 100 µM (inactive) | > 100 µM (inactive) | > 100 µM (inactive) | > 100 µM (inactive) | > 100 µM (inactive) | > 100 µM (inactive) |
| COc1ccc(N2C(=O)/C(=C\c3cccc(Oc4ccccc4)c3)SC2c2ccccc2)cc1 (stereo not given) | > 100 µM (inactive) | 66.8 µM (inactive) | 73.8 µM (inactive) | > 100 µM (inactive) | > 100 µM | 64.9 µM (inactive) | 10.3 µM (inactive) | – | 21.9 µM (inactive) | 29.9 µM (inactive) | > 100 µM (inactive) | > 100 µM (inactive) | 42.5 µM (inactive) | 40.2 µM (inactive) | > 100 µM (inactive) | 28.6 µM (inactive) | 33.2 µM (inactive) | > 100 µM (inactive) | 37.4 µM (inactive) | 26.1 µM (inactive) |
| CCOC(=O)/C(C(C)=O)=C(\OC(C)=O)c1ccncc1C(=O)O | > 100 µM (inactive) | > 100 µM (inactive) | > 100 µM (inactive) | > 100 µM (inactive) | > 100 µM | – | > 100 µM (inactive) | > 100 µM (inactive) | > 100 µM (inactive) | > 100 µM (inactive) | > 100 µM (inactive) | > 100 µM (inactive) | > 100 µM (inactive) | > 100 µM (inactive) | > 100 µM (inactive) | > 100 µM (inactive) | > 100 µM (inactive) | > 100 µM (inactive) | > 100 µM (inactive) | > 100 µM (inactive) |
| C(=C\c1ccco1)/c1cccc(/C=C/c2ccco2)n1 | > 50 µM (inactive) | > 50 µM (inactive) | > 50 µM (inactive) | > 50 µM (inactive) | > 50 µM | > 50 µM (inactive) | > 50 µM (inactive) | > 50 µM (inactive) | > 50 µM (inactive) | 0.283 µM (active) | > 50 µM (inactive) | > 50 µM (inactive) | > 50 µM (inactive) | > 50 µM (inactive) | > 50 µM (inactive) | > 50 µM (inactive) | > 50 µM (inactive) | > 50 µM (inactive) | > 50 µM (inactive) | – |
| O=C1C(C(c2ccccc2)N2CCOCC2)=C(O)C(c2ccccc2)N1c1ccccc1 (stereo not given) | > 10 µM (inactive) | > 10 µM (inactive) | > 10 µM (inactive) | > 10 µM (inactive) | > 10 µM | > 10 µM (inactive) | > 10 µM (inactive) | > 10 µM (inactive) | > 10 µM (inactive) | > 10 µM (inactive) | > 10 µM (inactive) | > 10 µM (inactive) | > 10 µM (inactive) | – | > 10 µM (inactive) | > 10 µM (inactive) | > 10 µM (inactive) | > 10 µM (inactive) | > 10 µM (inactive) | > 10 µM (inactive) |
| Cc1ccc(C(=O)NN=C(/N=N/c2cccc(C)c2)c2ccc(N(C)C)cc2)cc1 | > 100 µM (inactive) | > 100 µM (inactive) | 28.4 µM (inactive) | > 100 µM (inactive) | > 100 µM | – | > 100 µM (inactive) | > 100 µM (inactive) | > 100 µM (inactive) | > 100 µM (inactive) | > 100 µM (inactive) | > 100 µM (inactive) | > 100 µM (inactive) | > 100 µM (inactive) | > 100 µM (inactive) | > 100 µM (inactive) | > 100 µM (inactive) | > 100 µM (inactive) | > 100 µM (inactive) | > 100 µM (inactive) |
| O=C(c1nsc(Cl)c1Cl)N1CCCCC1 | > 100 µM (inactive) | > 100 µM (inactive) | > 100 µM (inactive) | > 100 µM (inactive) | > 100 µM | > 100 µM (inactive) | > 100 µM (inactive) | > 100 µM (inactive) | > 100 µM (inactive) | > 100 µM (inactive) | > 100 µM (inactive) | – | > 100 µM (inactive) | > 100 µM (inactive) | > 100 µM (inactive) | > 100 µM (inactive) | > 100 µM (inactive) | > 100 µM (inactive) | 39.5 µM (inactive) | > 100 µM (inactive) |
| CC(=O)OC(/C=C/c1ccccc1)=C(OC(C)C)/C1=C(\c2ccccc2)SCCCSC1=O | > 100 µM (inactive) | > 100 µM (inactive) | > 100 µM (inactive) | 53.2 µM (inactive) | > 100 µM | > 100 µM (inactive) | > 100 µM (inactive) | – | > 100 µM (inactive) | 36 µM (inactive) | > 100 µM (inactive) | > 100 µM (inactive) | > 100 µM (inactive) | 83.4 µM (inactive) | > 100 µM (inactive) | > 100 µM (inactive) | > 100 µM (inactive) | – | > 100 µM (inactive) | > 100 µM (inactive) |
| COC(=O)C1(O)C(c2ccccc2)NC2(C)CCCC21 (stereo not given) | > 100 µM (inactive) | > 100 µM (inactive) | > 100 µM (inactive) | – | > 100 µM | > 100 µM (inactive) | > 100 µM (inactive) | > 100 µM (inactive) | > 100 µM (inactive) | > 100 µM (inactive) | > 100 µM (inactive) | – | > 100 µM (inactive) | > 100 µM (inactive) | – | > 100 µM (inactive) | > 100 µM (inactive) | > 100 µM (inactive) | > 100 µM (inactive) | > 100 µM (inactive) |
